Data reported in publication PMC11440508, “Dually Labeled Neurotensin NTS1R Ligands for Probing Radiochemical and Fluorescence-Based Binding Assays” (Journal of Medicinal Chemistry, 2024).

Target: NTS1R (Homo sapiens, UniProt P30989)
Assay: Radiochemical association and dissociation of [^3H]13 at membranes of CHO-hNTS1R cells
Type: binding
Details: GppNHp
Description: These experiments were performed in 96-well plates using the same procedure as for radiochemical binding experiments with intact suspended cells, but using cell membranes instead of whole cells. Binding of [^3H]13 to the NTS1R was saturable (Figure 6A). […] To note, in addition to GppNHp, saponin (100 μg/mL) was added to the samples to improve ligand permeabilization into vesicles that are likely to occur in membrane preparations. The association curve of [^3H]13 obtained from experiments with cell membranes (Figure 6B) was considerably different compared to the association curve observed for intact suspended cells (cf. Figure 4C). The biphasic character almost disappeared and with a kon value of 0.13 ± 0.05 nM^–1 min^–1 (calculated value ± propagated error) the association was slower compared to the initial phase found for experiments with intact cells (kon = 0.81 nM^–1 min^–1, cf. Table 3). […]
CHO-hNTS1R cells were grown on 175 cm^2 cell culture dishes (ref 83.3903, Sarstedt) to ca. 90% confluency. […] The protein concentration was determined according to the Bradford method[59] in transparent 96-well plates (Greiner Cellstar 655180, Greiner Bio-One, Frickenhausen, Germany) using bovine serum albumin as standard. […]

Sequence of NTS1R (P30989 whole entry): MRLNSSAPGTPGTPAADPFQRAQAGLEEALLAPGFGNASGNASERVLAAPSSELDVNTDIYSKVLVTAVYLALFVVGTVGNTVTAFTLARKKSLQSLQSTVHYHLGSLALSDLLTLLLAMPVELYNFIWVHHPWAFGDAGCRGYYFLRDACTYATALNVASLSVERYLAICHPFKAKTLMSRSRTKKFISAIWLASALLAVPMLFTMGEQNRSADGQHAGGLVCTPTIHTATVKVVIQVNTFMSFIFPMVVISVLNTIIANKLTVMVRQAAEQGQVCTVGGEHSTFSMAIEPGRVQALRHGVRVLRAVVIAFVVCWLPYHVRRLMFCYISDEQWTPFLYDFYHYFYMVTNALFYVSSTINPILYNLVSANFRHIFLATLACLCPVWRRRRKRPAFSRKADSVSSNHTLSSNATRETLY

In the case of CCC(=O)NCCCCNC(=O)NC(=N)NCCC[C@H](NC(=O)[C@@H]1CCCN1C(=O)[C@@H](NC(=O)CCc1cn(CCCNC(=O)c2ccc(-c3c4ccc(=[N+](C)C)cc-4oc4cc(N(C)C)ccc34)c(C(=O)[O-])c2)nn1)C1CCNCC1)C(=O)N[C@@H](CCCNC(=N)N)C(=O)N1CCC[C@H]1C(=O)N[C@@H](Cc1ccc(O)cc1)C(=O)N[C@H](C(=O)N[C@@H](CC(C)C)C(=O)O)[C@@H](C)CC [[^3H]13], the koff (23 °C) is reported as 0.00617 s⁻¹ and the kon (calculated value ± propagated error) is reported as 2.17e+06 M⁻¹ s⁻¹.
